Values quoted from earlier work in patent publication US20210393522A1, “COMPOSITIONS FOR SOLUBILIZING WATER-INSOLUBLE ACTIVE INGREDIENTS” (priority 2020, published 2021).

Columns and labels:
[1] = oil-based delivery systems; humans; Agurell 1981

| Structure (SMILES) | Share of total CBD absorbed [1] [%] | Solubility in water [nanograms per ml] |
| --- | --- | --- |
| C=C(C)[C@@H]1CCC(C)=C[C@H]1c1c(O)cc(CCCCC)cc1O [CBD, cannabidiol] | 4 | – |
| CC(C)(Sc1cc(C(C)(C)C)c(O)c(C(C)(C)C)c1)Sc1cc(C(C)(C)C)c(O)c(C(C)(C)C)c1 [Probucol, 4,4′-[Propane-2,2-diylbis(thio)]bis(2,6-di-tert-butylphenol)] | – | 5 |
